Experimental findings from patent publication US10399961B2, “Heteroarylcarboxamide derivatives as plasma kallikrein inhibitors” (Boehringer Ingelheim International GmbH, priority 2015, dated 2019) are described below.

Molecules are shown by their SMILES.

Sequence of human Plasma Kallikrein (KLKB1) (P03952 391-638): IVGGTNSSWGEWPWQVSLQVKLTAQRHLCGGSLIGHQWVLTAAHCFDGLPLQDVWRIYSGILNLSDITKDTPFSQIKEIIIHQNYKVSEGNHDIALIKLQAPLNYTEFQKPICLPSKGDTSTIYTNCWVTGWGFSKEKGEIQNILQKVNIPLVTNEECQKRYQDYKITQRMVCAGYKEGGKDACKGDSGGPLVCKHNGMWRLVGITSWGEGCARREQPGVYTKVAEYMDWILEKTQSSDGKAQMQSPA
Sequence of human Plasma Kallikrein (KLKB1) (P03952 20-390 partner): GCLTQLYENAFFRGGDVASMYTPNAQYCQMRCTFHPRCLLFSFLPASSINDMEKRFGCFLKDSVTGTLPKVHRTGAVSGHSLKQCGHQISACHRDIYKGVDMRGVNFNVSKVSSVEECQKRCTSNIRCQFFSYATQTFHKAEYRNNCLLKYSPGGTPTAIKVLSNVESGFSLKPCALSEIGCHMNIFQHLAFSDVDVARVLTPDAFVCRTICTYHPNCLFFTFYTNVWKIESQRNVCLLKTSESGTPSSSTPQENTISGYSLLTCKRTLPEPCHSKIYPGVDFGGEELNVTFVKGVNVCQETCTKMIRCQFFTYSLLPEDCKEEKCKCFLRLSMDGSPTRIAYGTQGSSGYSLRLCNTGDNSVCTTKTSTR

In the experiment the target is human Plasma Kallikrein (KLKB1) (Homo sapiens (Human), UniProt P03952). Description: Inhibition of KLKB1 endpoint assay. The class given is biochemical. Particulars: fluorogenic substrate H-Pro-Phe-Arg-AMC, 1 hr at Room Temperature, read-out: IC50 measurements for the inhibition of human Plasma Kallikrein (KLKB1). As for the experimental part: The ability of compounds of Formula I to inhibit plasma kallikrein (KLKB1), Factor XIIa (FXIIa), Factor XIa (FXIa), Factor Xa (FXa), Factor IIa (alpha-thrombin; FIIa), plasmin, trypsin, tissue kallikrein 1 (KLK1), Factor VIIa (FVIIa), or FVIIa complexed with Tissue Factor, phospholipids and CaCl2 (FVIIa/TF/PL/CaCl2) was determined using the following biochemical assays in assay buffer (100 mM Tris, 150 mM NaCL, adjusted to a pH of 7.8 with HCl, and containing 0.1% (w/v) BSA and 0.05% (v/v) Tween20) in the presence of 1% (v/v) DMSO:
Subsequently, PPACK II (Calbiochem) was added as a stop solution to achieve a final concentration of 1 μM and fluorescence was measured using an Envision Reader (PerkinElmer) with the wavelength excitation setting of 355 nm and the wavelength emission setting of 460 nm.
One may read the IC50 as the point on the concentration scale where inhibition reaches its midpoint. Regarding `Cc1ccc2cc(Cn3cc(C(=O)NC4CCCc5nc(N)ccc54)nn3)ccc2n1` (stereo not shown) [Example 1, 1-(2-Methyl-quinolin-6-ylmethyl)-1H-[1,2,3]triazole-4-carboxylic acid (2-amino-5,6,7,8-tetrahydro-quinolin-5-yl)-amide], the half-maximal inhibitory concentration (IC50) is 900 nM. In the case of `Nc1nccc2c1C(NC(=O)c1cn(Cc3ccc(Cn4cccn4)cc3)nn1)CC2` (stereo not shown) [Example 2, 1-(4-Pyrazol-1-ylmethyl-benzyl)-1H-[1,2,3]triazole-4-carboxylic acid (1-amino-6,7-dihydro-5H-[2]pyrindin-7-yl)-amide] it was 600 nM; in that of `Nc1ccc2c(n1)CCC2NC(=O)c1cn(Cc2ccc(C(F)c3ccon3)cc2)nn1` (stereo not shown) [Example 3], 5500 nM; in that of `Nc1cc2c(cn1)C(NC(=O)c1cn(Cc3ccc(Cn4cccn4)cc3)nn1)CC2` (stereo not shown) [Example 4], 790 nM. In the case of `Nc1ccc2c(n1)CCC2NC(=O)c1cnn(Cc2ccc(Cn3cccn3)cc2)c1` (stereo not shown) [Example 6] it was 32 nM; in that of `Cc1ccc2cc(Cn3cc(C(=O)NC4CCc5nc(N)ccc54)nn3)ccc2n1` (stereo not shown) [Example 7], 910 nM; in that of `CC(C)(O)c1cccn(Cc2ccc(Cn3cc(C(=O)NC4CCc5nc(N)ccc54)nn3)cc2)c1=O` (stereo not shown) [Example 9], 560 nM. In the case of `C[C@H]1CCN(c2ccc(Cn3cc(C(=O)N[C@@H]4CCc5nc(N)ccc54)c(C(F)(F)F)n3)cn2)C1` [Example 14] it was 40 nM. As for `Cc1cnn(Cc2ccc(Cn3cc(C(=O)N[C@@H]4CCc5c4ccnc5N)c(C(F)(F)F)n3)cc2)c1` [Example 15], the IC50 worked out at 1 nM.

For the compound `Cc1cnn(Cc2ccc(Cn3cc(C(=O)N[C@@H]4CCc5nc(N)ccc54)c(C(F)(F)F)n3)cc2)c1` [Example 16], the concentration for half-maximal inhibition (IC50) amounted to 18 nM.
